Measured values reported in US10966426B2, “Herbicidal compositions comprising phenylpyrimidines” (BASF SE, priority 2016, dated 2021).
Several values for one entry are separate records, joined by “and”; a condition that tells them apart may be missing. Equal entries are not always repeated.

Tests used:
Format in all cases: in vivo
Avena fatua = test: greenhouse post-emergence treatment, AVEFA
Outline: (§1)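 Scoring used a 0 to 100 scale, with 100 denoting no emergence or full destruction of at least the above-ground parts, recorded within a 2 to 4 week test period. Test plants grew in loamy sand containing about 3.0% humus at 10-25° C. or 20-35° C., after direct sowing or transplanting, and received water-based treatments post-emergence.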

Polygonum convolvulus = test: greenhouse post-emergence treatment, POLCO
Outline: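 Visual herbicidal effect (0–100) recorded over a 2 to 4 week test period after foliar treatment at plant heights of 3 to 15 cm. Expected combination effects derived by the Colby formula from single-component effects X and Y.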

Bromus sterilis = test: greenhouse post-emergence treatment, BROST
Outline: as §1

Poa annua = test: greenhouse post-emergence treatment, POAAN
Outline: (§2)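 Greenhouse; post-emergence spray at 3–15 cm; aqueous EC formulation; 2–4 weeks; 0–100 visual score.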

Ambrosia elatior = test: greenhouse post-emergence treatment, AMBEL
Outline: as §2

Brachiaria decumbens = test: greenhouse post-emergence treatment, BRADC
Outline: as §2

[1] = 20 DAT, Ex. 26 solo 62.5 gai/ha

COC(=O)c1nc(C2CC2)ncc1-c1ccc(F)cc1Cl [Ex. 26]
% activity (Avena fatua; 20 DAT, AVEFA, Ex. 26 solo 62.5 gai/ha): 65%
% activity (Avena fatua; 20 DAT, AVEFA, Ex. 26 solo 125 gai/ha): 75%
% activity (Avena fatua; 20 DAT, AVEFA, Ex. 26 solo 250 gai/ha): 75%
% activity (Avena fatua; [1]): 35%
% activity (Avena fatua; 20 DAT, Ex. 26 solo 250 gai/ha): 70%
% activity (Avena fatua; AVEFA, 21 DAT, solo Ex. 26 62.5 gai/ha): 70%
% activity (Avena fatua; AVEFA, 21 DAT, solo Ex. 26 125 gai/ha): 70%
% activity (Avena fatua; AVEFA, Ex. 26 solo 125 gai/ha, 20 DAT): 70%
% activity (Avena fatua; AVEFA, Ex. 26 solo 250 gai/ha, 20 DAT): 75%
% activity (Avena fatua; Ex. 26 solo 62.5 gai/ha, 20 DAT, AVEFA): 65%
% activity (Avena fatua; Ex. 26 solo 62.5 gai/ha, 21 DAT, AVEFA): 50%
% activity (Avena fatua; Ex. 26 solo 125 gai/ha, 20 DAT, AVEFA): 70%
% activity (Avena fatua; Ex. 26 solo 250 gai/ha, 20 DAT, AVEFA): 75%
% activity (Avena fatua; Ex. 26 solo, 125 gai/ha, 20 DAT, AVEFA): 65%
% activity (Avena fatua; Ex. 26 solo, 125 gai/ha, 21 DAT, AVEFA): 70%
% activity (Avena fatua; Ex. 26 solo, 250 gai/ha, 20 DAT, AVEFA): 85%
% activity (Polygonum convolvulus; 20 DAT, Ex. 26 solo 250 gai/ha): 30%
% activity (Polygonum convolvulus; 20 DAT, POLCO, Ex. 26 solo 62.5 gai/ha): 65%
% activity (Polygonum convolvulus; 20 DAT, POLCO, Ex. 26 solo 125 gai/ha): 85% and 80%
% activity (Polygonum convolvulus; 21 DAT, Ex. 26 solo 125 gai/ha): 0%
% activity (Polygonum convolvulus; Ex. 26 solo 62.5 gai/ha, 20 DAT, POLCO): 30%
% activity (Polygonum convolvulus; Ex. 26 solo 62.5 gai/ha, 21 DAT, POLCO): 0%
% activity (Polygonum convolvulus; Ex. 26 solo 125 gai/ha, 20 DAT, POLCO): 90%
% activity (Polygonum convolvulus; Ex. 26 solo 125 gai/ha, 21 DAT, POLCO): 0%
% activity (Polygonum convolvulus; Ex. 26 solo, 125 gai/ha, 20 DAT, POLCO): 5%
% activity (Polygonum convolvulus; Ex. 26 solo, 125 gai/ha, 21 DAT, POLCO): 35%
% activity (Polygonum convolvulus; Ex. 26 solo, 250 gai/ha, 20 DAT, POLCO): 30%
% activity (Polygonum convolvulus; Ex. 26 solo, 250 gai/ha, 21 DAT, POLCO): 85%
% activity (Polygonum convolvulus; POLCO, 21 DAT, solo Ex. 26 62.5 gai/ha): 0%
% activity (Polygonum convolvulus; POLCO, 21 DAT, solo Ex. 26 125 gai/ha): 35%
% activity (Polygonum convolvulus; POLCO, 21 DAT, solo Ex. 26 250 gai/ha): 85%
% activity (Bromus sterilis; 20 DAT, BROST, Ex. 26 solo 125 gai/ha): 60% and 35%
% activity (Bromus sterilis; 20 DAT, BROST, Ex. 26 solo 250 gai/ha): 65%
% activity (Bromus sterilis; [1]): 0%
% activity (Bromus sterilis; 20 DAT, Ex. 26 solo 250 gai/ha): 35% and 55% and 30%
% activity (Bromus sterilis; 21 DAT, Ex. 26 solo 125 gai/ha): 5%
% activity (Bromus sterilis; 21 DAT, Ex. 26 solo 250 gai/ha): 35%
% activity (Bromus sterilis; BROST, Ex. 26 solo 125 gai/ha, 20 DAT): 60% and 35% and 40%
% activity (Bromus sterilis; BROST, Ex. 26 solo 250 gai/ha, 20 DAT): 65%
% activity (Bromus sterilis; Ex. 26 solo 62.5 gai/ha, 20 DAT, BROST): 0%
% activity (Bromus sterilis; Ex. 26 solo 125 gai/ha, 21 DAT, BROST): 5%
% activity (Bromus sterilis; Ex. 26 solo 250 gai/ha, 21 DAT, BROST): 35%
% activity (Bromus sterilis; Ex. 26 solo, 125 gai/ha, 20 DAT, BROST): 5%
% activity (Bromus sterilis; Ex. 26 solo, 125 gai/ha, 21 DAT, BROST): 15%
% activity (Bromus sterilis; Ex. 26 solo, 250 gai/ha, 21 DAT, BROST): 25%
% activity (Poa annua; 20 DAT, Ex. 26 solo 250 gai/ha): 70%
% activity (Poa annua; 20 DAT, POAAN, Ex. 26 solo 125 gai/ha): 75% and 70%
% activity (Poa annua; 20 DAT, POAAN, Ex. 26 solo 250 gai/ha): 80%
% activity (Poa annua; 21 DAT, Ex. 26 solo 125 gai/ha): 65%
% activity (Poa annua; 21 DAT, Ex. 26 solo 250 gai/ha): 75%
% activity (Poa annua; Ex. 26 solo 62.5 gai/ha, 21 DAT, POAAN): 35%
% activity (Poa annua; Ex. 26 solo, 125 gai/ha, 20 DAT, POAAN): 40%
% activity (Poa annua; Ex. 26 solo, 125 gai/ha, 21 DAT, POAAN): 40%
% activity (Poa annua; Ex. 26 solo, 250 gai/ha, 20 DAT, POAAN): 70%
% activity (Poa annua; POAAN, 21 DAT, solo Ex. 26 62.5 gai/ha): 30%
% activity (Poa annua; POAAN, Ex. 26 solo 125 gai/ha, 20 DAT): 70%
% activity (Poa annua; POAAN, Ex. 26 solo 250 gai/ha, 20 DAT): 60%
% activity (Ambrosia elatior; 20 DAT, AMBEL, Ex. 26 solo 62.5 gai/ha): 0%
% activity (Ambrosia elatior; 20 DAT, AMBEL, Ex. 26 solo 125 gai/ha): 0%
% activity (Ambrosia elatior; 20 DAT, AMBEL, Ex. 26 solo 250 gai/ha): 40%
% activity (Ambrosia elatior; [1]): 0%
% activity (Ambrosia elatior; 20 DAT, Ex. 26 solo 125 gai/ha): 0%
% activity (Ambrosia elatior; 20 DAT, Ex. 26 solo 250 gai/ha): 0%
% activity (Ambrosia elatior; 21 DAT, Ex. 26 solo 250 gai/ha): 0%
% activity (Ambrosia elatior; AMBEL, Ex. 26 solo 62.5 gai/ha, 20 DAT): 0%
% activity (Ambrosia elatior; AMBEL, Ex. 26 solo 125 gai/ha, 20 DAT): 0%
% activity (Ambrosia elatior; AMBEL, Ex. 26 solo 250 gai/ha, 20 DAT): 60%
% activity (Ambrosia elatior; Ex. 26 solo 62.5 gai/ha, 20 DAT, AMBEL (pyridate table)): 0%
% activity (Ambrosia elatior; Ex. 26 solo 62.5 gai/ha, 20 DAT, AMBEL (pyroxsulam table)): 0%
% activity (Ambrosia elatior; Ex. 26 solo 62.5 gai/ha, 21 DAT, AMBEL): 5%
% activity (Ambrosia elatior; Ex. 26 solo 125 gai/ha, 20 DAT, AMBEL (pyridate table)): 0%
% activity (Ambrosia elatior; Ex. 26 solo 125 gai/ha, 20 DAT, AMBEL (pyroxsulam table)): 0%
% activity (Ambrosia elatior; Ex. 26 solo 250 gai/ha, 20 DAT, AMBEL (pyroxsulam table)): 20%
% activity (Ambrosia elatior; Ex. 26 solo 250 gai/ha, 21 DAT, AMBEL): 0%
% activity (Ambrosia elatior; Ex. 26 solo, 125 gai/ha, 21 DAT, AMBEL): 0%
% activity (Ambrosia elatior; Ex. 26 solo, 250 gai/ha, 21 DAT, AMBEL): 20%
% activity (Brachiaria decumbens; 20 DAT, BRADC, Ex. 26 solo 125 gai/ha): 30% and 55%
% activity (Brachiaria decumbens; 20 DAT, BRADC, Ex. 26 solo 250 gai/ha): 60%
% activity (Brachiaria decumbens; [1]): 0%
% activity (Brachiaria decumbens; 20 DAT, Ex. 26 solo 250 gai/ha): 35% and 50% and 30%
% activity (Brachiaria decumbens; BRADC, 21 DAT, solo Ex. 26 62.5 gai/ha): 0%
% activity (Brachiaria decumbens; BRADC, 21 DAT, solo Ex. 26 125 gai/ha): 10%
% activity (Brachiaria decumbens; BRADC, 21 DAT, solo Ex. 26 250 gai/ha): 40%
% activity (Brachiaria decumbens; BRADC, Ex. 26 solo 125 gai/ha, 20 DAT): 30% and 40%
% activity (Brachiaria decumbens; Ex. 26 solo 62.5 gai/ha, 20 DAT, BRADC (pyridate table)): 20%
% activity (Brachiaria decumbens; Ex. 26 solo 62.5 gai/ha, 20 DAT, BRADC (pyroxsulam table)): 0%
% activity (Brachiaria decumbens; Ex. 26 solo 62.5 gai/ha, 21 DAT, BRADC): 0%
% activity (Brachiaria decumbens; Ex. 26 solo 125 gai/ha, 20 DAT, BRADC (pyridate table)): 40%
